Here are results for twelve molecules from PubChem BioAssay (NCI).

Some test systems named below: CAKI-1 renal; COLO 205 colon; HCT-116 colon; K-562 leukemia; KM12 colon; M14 melanoma; MOLT-4 leukemia; SF-268 CNS; SF-295 CNS; UACC-62 melanoma.
Test in all cases: DTP human tumour cell line panel, 48 h

“And” between values parts separate entries of the source, which are not always exact repeats. Identical values can stand only once.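 Values below derive from 48-hour exposures of cells grown in 96-well plates, with endpoints linearly interpolated between the two concentrations bracketing the appropriate inhibition level. Abbreviation: GI50, concentration required for 50% inhibition of growth. TGI is the concentration that stops growth completely.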

What is called GI50 is the concentration that inhibits growth by half. The term TGI denotes the concentration giving total growth inhibition. For the molecule `COc1cc(C(=O)c2ccc3c(c2)OCO3)cc(OC)c1OC`, the GI50 in the test on CAKI-1 renal is 1.88 µM; in the test with COLO 205 colon, 1.37 µM; in the test on HCT-116 colon, 2.08 µM; in the test on K-562 leukemia, 0.482 µM; in the test on KM12 colon it was 0.656 µM; in the test with M14 melanoma, 1.2 µM. For the same molecule, the GI50 in the test with MOLT-4 leukemia was 2.72 µM; in the test with SF-268 CNS, 5.56 µM; in the test with SF-295 CNS, 1.55 µM; with UACC-62 melanoma it was 2.62 µM. In addition, the TGI with CAKI-1 renal is above 27.4 µM; in the test with COLO 205 colon it was 6.2 µM; in the test with HCT-116 colon it was above 100 µM; in the test with K-562 leukemia, above 100 µM; in the test with KM12 colon, 80.8 µM; in the test on M14 melanoma, above 100 µM. Besides, the concentration for total growth inhibition (TGI) was above 75.1 µM in the test on MOLT-4 leukemia, above 100 µM in the test with SF-268 CNS and above 100 µM in the test on UACC-62 melanoma.
As for `COc1ccc2nc(-c3cc(-c4cc(OC)c(OC)c(OC)c4)n[nH]3)[nH]c2c1`, the GI50 with CAKI-1 renal was 1.79 µM; in the test with COLO 205 colon, 1.61 µM; with HCT-116 colon it was 1.81 µM; with K-562 leukemia, 2.01 µM; with KM12 colon, 1.7 µM; with M14 melanoma, 1.66 µM. Besides, the GI50 is 0.738 µM with MOLT-4 leukemia, 2.74 µM in the test on SF-268 CNS, 1.62 µM in the test on SF-295 CNS and 1.12 µM in the test on UACC-62 melanoma. The TGI with CAKI-1 renal is 5.64 µM; in the test on COLO 205 colon, 3.24 µM; in the test on HCT-116 colon it was 6.65 µM; in the test on K-562 leukemia, above 100 µM; with KM12 colon it was 3.69 µM; in the test with M14 melanoma, 4.31 µM. Besides, the TGI was determined as 3.27 µM in the test on MOLT-4 leukemia, 9.38 µM with SF-268 CNS, 5.24 µM in the test with SF-295 CNS and 2.52 µM with UACC-62 melanoma.
Regarding `O=C(Nc1ccccc1O)c1cccc(NC2=C(Cl)C(=O)N(Cc3ccccc3)C2=O)c1`, the GI50 in the test with CAKI-1 renal is 5.12 µM; in the test with COLO 205 colon it was 13.2 µM; with HCT-116 colon it was 2.97 µM; with K-562 leukemia it was 2.15 µM; in the test with KM12 colon it was 12.9 µM; in the test on M14 melanoma, 4.35 µM. The GI50 in the test with MOLT-4 leukemia is 0.712 µM; in the test with SF-268 CNS, 11.3 µM; with SF-295 CNS, 4.46 µM; in the test on UACC-62 melanoma it was 2.33 µM. Further, the TGI in the test with CAKI-1 renal is 12.7 µM; in the test on COLO 205 colon, 40 µM; in the test on HCT-116 colon, 12.1 µM; in the test on K-562 leukemia, 9.06 µM; with KM12 colon, 26.6 µM; in the test on M14 melanoma, 11.3 µM. Moreover, the concentration for total growth inhibition (TGI) in the test on MOLT-4 leukemia came out at 4.01 µM; in the test on SF-268 CNS it was 27.5 µM; with SF-295 CNS, 12.5 µM; in the test on UACC-62 melanoma, 6.79 µM.
With `Cn1cncc1[C@@](N)(c1ccc(Cl)cc1)c1ccc2c(c1)c(-c1cccc(Cl)c1)cc(=O)n2C`, the GI50 in the test on CAKI-1 renal was 3.08 µM; in the test with COLO 205 colon, 2.31 µM; in the test with HCT-116 colon, 1.48 µM; with K-562 leukemia it was 0.669 µM; in the test on KM12 colon it was 1.18 µM; with M14 melanoma, 0.0818 µM. In addition, the GI50 in the test on MOLT-4 leukemia is 2.33 µM; in the test with SF-268 CNS it was 3.01 µM; in the test on SF-295 CNS, 0.534 µM; in the test on UACC-62 melanoma, 0.42 µM. For the same molecule, the concentration for total growth inhibition (TGI) in the test with CAKI-1 renal was determined as 14.7 µM; in the test with COLO 205 colon it was 9.09 µM; with HCT-116 colon, 7.57 µM; in the test on K-562 leukemia, 6.16 µM; in the test on KM12 colon, 7.02 µM; in the test on M14 melanoma, 11.1 µM. In addition, the total growth inhibition concentration (TGI) amounted to 7.97 µM with MOLT-4 leukemia, 14.7 µM with SF-268 CNS, 6.35 µM in the test with SF-295 CNS and 12.5 µM in the test on UACC-62 melanoma.
For `COC(=O)/C=C1/CCC2[C@@H](C(=O)CC3[C@]2(C)CCC[C@@]3(C)C(=O)OC)C1C` (stereo partly specified), the TGI in the test on CAKI-1 renal came out at 17.4 µM; in the test on COLO 205 colon it was 18.1 µM; with HCT-116 colon it was 19.1 µM; in the test on K-562 leukemia it was 14.2 µM; in the test with KM12 colon, 27 µM; in the test on M14 melanoma it was 29.1 µM. Also, the TGI in the test on MOLT-4 leukemia stood at 19.1 µM; in the test on SF-268 CNS, 38.6 µM; in the test on SF-295 CNS, 33.1 µM; in the test with UACC-62 melanoma, 30.1 µM.
As for `COc1ccc(CCN2C(=O)C=CC2=O)cc1OC`, the concentration for total growth inhibition (TGI) with CAKI-1 renal is 27.4 µM; in the test with COLO 205 colon, 3.54 µM; with HCT-116 colon, 11.2 µM; with K-562 leukemia, above 100 µM; in the test with KM12 colon, 40.8 µM; in the test with M14 melanoma, 24.1 µM. Besides, the total growth inhibition concentration (TGI) in the test on MOLT-4 leukemia was 5.49 µM; in the test with SF-268 CNS it was 54.4 µM; in the test with SF-295 CNS, 33.5 µM; with UACC-62 melanoma, 31 µM.
As for `CCC(C)(C)C(=O)O[C@H]1C[C@@H](C)C=C2C=C[C@H](C)[C@H](CC[C@@H]3C[C@@H](O)CC(=O)O3)[C@H]21`, the GI50 with CAKI-1 renal was 0.941 µM; with COLO 205 colon, 4.14 µM; in the test with HCT-116 colon, 1.25 µM; in the test on K-562 leukemia, 5.53 µM; in the test with KM12 colon, 11.2 µM; with M14 melanoma, 2.89 µM. Also, the GI50 with MOLT-4 leukemia was 14.6 µM; in the test on SF-268 CNS it was 0.715 µM; in the test with SF-295 CNS, 0.434 µM; with UACC-62 melanoma, 0.578 µM. Also, the TGI was 3.73 µM and 8.56 µM with CAKI-1 renal; 14.7 µM and 23.6 µM in the test with COLO 205 colon; 5.43 µM and 6.98 µM in the test with HCT-116 colon; 22.8 µM and > 30 µM in the test with K-562 leukemia; 24.1 µM and > 30 µM with KM12 colon; 16.7 µM and 8.09 µM in the test with M14 melanoma. The TGI in the test with MOLT-4 leukemia was 31.7 µM and > 30 µM; in the test with SF-268 CNS, 15.4 µM; in the test on SF-295 CNS, 8.03 µM and 2.61 µM.
Take `c1ccc(Cn2cc3c(c2-c2ccccc2)CCc2cnoc2-3)cc1`: the GI50 in the test on CAKI-1 renal is 4.4 µM; in the test on COLO 205 colon, 2.9 µM; in the test on HCT-116 colon it was 3.27 µM; in the test with K-562 leukemia, 2.14 µM; with KM12 colon it was 3.27 µM; in the test on M14 melanoma, 4.89 µM. Besides, the GI50 in the test with MOLT-4 leukemia is 2.19 µM; in the test on SF-268 CNS it was 8.05 µM; with SF-295 CNS, 3.16 µM; in the test on UACC-62 melanoma, 4.48 µM. For the same molecule, the concentration for total growth inhibition (TGI) was above 100 µM with CAKI-1 renal; 11.1 µM with COLO 205 colon; above 100 µM in the test on HCT-116 colon; 7.31 µM in the test on K-562 leukemia; 47 µM in the test on KM12 colon; above 100 µM in the test on M14 melanoma. For the same molecule, the TGI in the test on MOLT-4 leukemia is 6.98 µM; in the test on SF-268 CNS, above 100 µM; in the test on SF-295 CNS it was 31.5 µM; in the test on UACC-62 melanoma it was above 100 µM.
As for `CCOc1cccc(/C=N/NC(=O)c2ccc(Nc3ccnc(C(F)(F)F)c3)cc2)c1O`, the GI50 with CAKI-1 renal is 1.36 µM; in the test with COLO 205 colon, 1.14 µM; with HCT-116 colon, 0.367 µM; with K-562 leukemia it was 0.947 µM; in the test on KM12 colon, 1.62 µM; in the test with M14 melanoma, 1.19 µM. Further, the GI50 was 0.244 µM in the test with MOLT-4 leukemia, 1.07 µM in the test on SF-268 CNS, 1.28 µM in the test on SF-295 CNS and 0.774 µM in the test on UACC-62 melanoma. The TGI in the test with CAKI-1 renal was above 100 µM; with COLO 205 colon, above 38.3 µM; in the test on HCT-116 colon it was above 71.5 µM; in the test with K-562 leukemia it was above 31.6 µM; in the test on KM12 colon it was above 58.4 µM; with M14 melanoma it was above 24.6 µM. The results for the concentration for total growth inhibition (TGI) with SF-268 CNS, in the test with SF-295 CNS and in the test on UACC-62 melanoma were above 100 µM, 40.6 µM and above 61 µM, respectively.
Take `COc1cc(NS(C)(=O)=O)ccc1Nc1c2ccc(Cl)cc2nc2c(OC)cccc12`: the GI50 was 0.0316 µM in the test on CAKI-1 renal; 0.182 µM in the test with COLO 205 colon; 0.0794 µM in the test on HCT-116 colon; 0.425 µM with K-562 leukemia; 0.268 µM in the test with KM12 colon; 0.146 µM in the test on M14 melanoma. Also, the GI50 was 0.131 µM in the test on SF-268 CNS, 0.0356 µM in the test on SF-295 CNS and 0.189 µM in the test on UACC-62 melanoma. Further, the total growth inhibition concentration (TGI) in the test on CAKI-1 renal is 1.87 µM; in the test on COLO 205 colon, 2.35 µM; in the test with HCT-116 colon, 2.05 µM; in the test on K-562 leukemia it was above 100 µM; in the test with KM12 colon it was 1.81 µM; in the test with M14 melanoma, 1.83 µM. The concentration for total growth inhibition (TGI) is 2.15 µM in the test with MOLT-4 leukemia, 11.5 µM in the test with SF-268 CNS, 1.11 µM in the test with SF-295 CNS and 2.96 µM with UACC-62 melanoma.
As to `CC1=C(C(=O)Nc2ccc(F)c(Cl)c2)C(c2ccccc2Cl)NC(=S)N1` (stereo unspecified), the GI50 is 37 µM with CAKI-1 renal; 23.9 µM with COLO 205 colon; 22.4 µM with HCT-116 colon; 21.7 µM with K-562 leukemia; 41.9 µM with KM12 colon; 34.9 µM with M14 melanoma. Further, the GI50 was above 50 µM with MOLT-4 leukemia, 27.6 µM with SF-268 CNS, 39.8 µM with SF-295 CNS and 9.63 µM in the test on UACC-62 melanoma. Further, the concentration for total growth inhibition (TGI) with CAKI-1 renal, with COLO 205 colon, in the test on HCT-116 colon, in the test with K-562 leukemia, in the test with KM12 colon and in the test on M14 melanoma was above 50 µM throughout. Moreover, the concentration for total growth inhibition (TGI) in the test with MOLT-4 leukemia, in the test with SF-268 CNS, in the test with SF-295 CNS and in the test with UACC-62 melanoma was above 50 µM each time.
Regarding `COc1cc(/C=C2\[C@H]3c4c(c(OC)c(C)c(OC)c4OC)C[C@@H](C(=O)N2Cc2ccccc2)N3C(=O)OCC(C)C)c(OC)c(C)c1OC`, the TGI in the test with CAKI-1 renal, in the test with COLO 205 colon, in the test on HCT-116 colon, in the test on K-562 leukemia, in the test on KM12 colon and in the test with M14 melanoma was above 100 µM each time. The concentration for total growth inhibition (TGI) in the test with MOLT-4 leukemia, in the test on SF-268 CNS, in the test with SF-295 CNS and with UACC-62 melanoma was above 100 µM in each case.
